In patent publication US7196084B2, “Cdc25 phosphatase inhibitors” (Societe de Conseils de Recherches et d'Applications …, priority 2000, dated 2007):
Counter-ions that a name gives are not always drawn.

Experiments:
[1] = test system: Mia-PaCa2 (human pancreatic cancer cells); assay: Anti-proliferative activity, WST1 colorimetric test, Mia-PaCa2; format: cell-based; settings: MIA PaCa-2, treated for 96 hours, read-out: IC50 on the cell proliferation of Mia-Paca2 lines
Experimental: (§1) c) Characterization of the Anti-proliferative Activity:
(§2) By way of example, the effect of a treatment on two lines of human Mia-Paca2 and DU145 cells with compounds of Examples 1–5 described previously will be studied. The cell lines DU145 (human prostate cancer cells) and Mia-PaCa2 (human pancreatic cancer cells) were acquired from the American Tissue Culture Collection (Rockville, Md., USA). The cells placed in 80 μL of Dulbecco's modified Eagle medium (Gibco-Brl, Cergy-Pontoise, France) completed with 10% foetal calf serum inactivated by heating (Gibco-Brl, Cergy-Pontoise, France), 50000 units/l of penicillin and 50 mg/l streptomycin (Gibco-Brl, Cergy-Pontoise, France), and 2 mM of glutamine (Gibco-Brl, Cergy-Pontoise, France) were seeded on a 96-well plate on day 0. The cells were treated on day 1 for 96 hours with increasing concentrations of each of the compounds to be tested up to 50 μg/ml. At the end of this period, quantification of cell proliferation is evaluated by a colorimetric test based on the cleavage of the tetrazolium salt WST1 by mitochondrial dehydrogenases in viable cells leading to the formation of formazan (Boehringer Mannheim, Meylan, France). These tests are carried out in duplicate with 8 determinations per concentration tested. For each compound to be tested, the values included in the linear part of the sigmoid were retained for linear regression analysis and used to estimate the inhibitory concentration IC50. The products are solubilized in dimethylsulphoxide (DMSO) at 10^−2 M and finally used in culture with 0.5% DMSO.

[2] = test system: phosphorylation of cdc2 in the Mia PaCa-2 line (endogenous cdc25C phosphatase of human cells); assay: Measurement of the state of cdc2 phosphorylation (western blot); format: cell-based; settings: Mia-Paca2 cells treated with increasing concentrations, sampling 24 hours later, FIG. 1; menadione as reference inhibitor
Experimental: b) Measurement of the State of cdc2 Phosphorylation:
This relates to showing that the enzymatic activity of cdc25-C phosphatase is inhibited in vivo […] in the presence of selected inhibitors.
The cells of the Mia PaCa2 line are seeded at a rate of 450 000 cells in 10 cm Petri dishes in Dulbecco's modified Eagle medium completed with 10% foetal calf serum. 48 hours later, the cells are treated for 1 hour with the compound to be tested or menadione at 100 μM (reference inhibitor). The medium is renewed after washing with PBS. 24 hours after the cells are scraped and lysed in the lysis buffer (Hepes 50 mM pH 7.5; NaCl 10 mM; Triton X100 1%; glycerol 10%; MgCl2 5 mM; EDTA 1 mM; sodium orthovanadate 1 mM; protease inhibitor cocktail 1836170 Roche Diagnostics). After centrifugation at 13 000 rpm for 10 minutes at 4° C., the concentration of proteins is determined in the supernatant (Bio-Rad DC Protein assay kit) and adjusted to 10 μg. The load buffer concentrated 5 times (Tris HCl 125 mM pH 7.4; SDS 10%; glycerol 50%; bromophenol blue 0.025%; β-mercaptoethanol 7%) is added to the samples. The samples are heated for 10 minutes at 100° C. The samples are deposited in a volume of 40 μl on Tris/Glycine 12% gels (BioRad). Migration occurs over 1 hour at 180 V. The proteins are transferred onto a nitrocellulose membrane (Hybond C, Amersham) under semi-dry conditions. […]

[3] = test system: DU145 (human prostate cancer cells); assay: Anti-proliferative activity, WST1 colorimetric test, DU145; format: cell-based; settings: DU-145, treated for 96 hours, read-out: IC50 on the cell proliferation of DU-145 lines
Experimental: as §1, §2

Structure (SMILES)	IC50 [1] [µM]	increase of the phosphorylated form of cdc2 [2]	melting point [°C]	IC50 [3] [µM]
COc1cc(CN(C)CCc2ccc([N+](=O)[O-])cc2)cc(N(C)C)c1O [Example 8, 2-(dimethylamino)-6-methoxy-4-({methyl[2-(4-nitrophenyl)ethyl]amino}methyl)phenol]	≤ 100	–	–	–
COc1cc(N(C)C)cc(CNCCc2ccc([N+](=O)[O-])cc2)c1O [Example 6, 4-(dimethylamino)-2-methoxy-6-({[2-(4-nitrophenyl)ethyl]amino}methyl)phenol]	≤ 100	–	–	–
CC1=CC(=O)c2ccccc2C1=O [menadione, reference compound]	–	increase	–	–
CN1CCN(c2ccc(NC(=O)CCCc3ccc(N)cc3)cc2)CC1.Cl [Example 5, 4-(4-aminophenyl)-N-[4-(4-methyl-1-piperazinyl)phenyl]butanamide hydrochloride]	–	–	156 to 158	–
CN(C)c1ccccc1NC(=O)CCCCc1ccc(/N=C(/N)c2cccs2)cc1.Cl [Example 30, 5-(4-{[(1E)-amino(2-thienyl)methylidene]amino}phenyl)-N-[2-(dimethylamino)phenyl]pentanamide hydrochloride]	≤ 100	–	145 to 148	–
Cc1ccc(S(=O)(=O)N2CCN(C(=O)c3cc4cc(O)ccc4cc3O)CC2)cc1 [Example 31, 3-({4-[(4-methylphenyl)sulphonyl]piperazin-1-yl}carbonyl) naphthalene-2,6-diol]	≤ 100	–	135 to 137	–
CCOP(=O)(OCC)Oc1ccc(CCNC(=O)c2cc3cc(O)ccc3cc2O)cc1 [Example 13, diethyl 4-{2-[(3,7-dihydroxy-2-naphthoyl)amino]ethyl}phenylphosphate]	≤ 100	–	192 to 194	≤ 100
CS(=O)(=O)N1CCN(C(=O)c2cc3cc(O)ccc3cc2O)CC1 [Example 32, 3-{[4-(methylsulphonyl)piperazin-1-yl]carbonyl}naphthalene-2,6-diol]	–	–	124 to 126	–
COc1cc(N(C)C)cc(CN(C)CCc2ccc([N+](=O)[O-])cc2)c1OC(C)=O [Example 10, 4-(dimethylamino)-2-methoxy-6-({methyl[2-(4-nitrophenyl)ethyl]amino}methyl)phenyl acetate]	≤ 100	–	–	–
CCCCS(=O)(=O)Nc1ccc(CCNC(=O)c2cc3cc(O)ccc3cc2O)cc1 [Example 17, N-(2-{4-[(butylsulphonyl)amino]phenyl}ethyl)-3,7-dihydroxy-2-naphthamide]	≤ 100	–	193 to 195	–
CC1CCN(S(=O)(=O)c2cccc(CNC(=O)c3cc4cc(O)ccc4cc3O)c2)CC1 [Example 29, 3,7-dihydroxy-N-{3-[(4-methyl-1-piperidinyl)sulphonyl]benzyl}-2-naphthamide]	≤ 100	–	–	–
CN(C)c1ccc(NC(=O)CCNCc2cccc(N=C(N)c3cccs3)c2)cc1 [Example 4, 3-[(3-{[amino(2-thienyl)methylidene]amino}-benzyl)amino]-N-[4-(dimethylamino)phenyl]propanamide hydrochloride]	≤ 100	–	–	–
O=C(NCCc1ccc(NS(=O)(=O)c2cccc(C(F)(F)F)c2)cc1)c1cc2cc(O)ccc2cc1O [Example 22, 3,7-dihydroxy-N-{2-[4-({[3-(trifluoromethyl)phenyl]sulphonyl}amino)phenyl]ethyl}-2-naphthamide]	≤ 100	–	–	≤ 100
CN(C)c1ccc(O)c(CNCCc2ccc([N+](=O)[O-])cc2)c1 [Example 7, 4-(dimethylamino)-2-({[2-(4-nitrophenyl)ethyl]amino}methyl)phenol]	≤ 100	–	–	–
CCCCS(=O)(=O)N1CCN(C(=O)c2cc3cc(O)ccc3cc2O)CC1 [Example 33, 3-{[4-(butylsulphonyl)piperazin-1-yl]carbonyl}naphthalene-2,6-diol]	–	–	105 to 110	–
CN(CCc1ccc([N+](=O)[O-])cc1)Cc1cc(O)ccc1O [Example 9, 2-({methyl [2-(4-nitrophenyl)ethyl]amino}methyl)-1,4-benzenediol]	≤ 100	–	–	–
COc1cc(N(C)C)cc(CN(C)CCc2ccc([N+](=O)[O-])cc2)c1O [Example 1, 4-(dimethylamino)-2-methoxy-6-({methyl[2-(4-nitrophenyl)ethyl]-amino}methyl)phenol]	≤ 100	growing increase of the phosphorylated form of cdc2	91 to 93	–
Cc1ccc(S(=O)(=O)Nc2ccc(CCNC(=O)c3cc4cc(O)ccc4cc3O)cc2)cc1 [Example 18, 3,7-dihydroxy-N-[2-(4-{[(4-methylphenyl)sulphonyl]amino}phenyl)ethyl]-2-naphthamide]	≤ 100	–	182 to 184	–
O=C(NCCc1ccc(NS(=O)(=O)c2ccc(F)cc2)cc1)c1cc2cc(O)ccc2cc1O [Example 28, N-[2-(4-{[(4-fluorophenyl)sulphonyl]amino}phenyl)ethyl]-3,7-dihydroxy-2-naphthamide]	≤ 100	–	–	–
CN(CCc1ccc([N+](=O)[O-])cc1)Cc1cc(N(C)C)ccc1O [Example 2, 4-(dimethylamino)-2-({methyl[2-(4-nitrophenyl)ethyl]amino}methyl)phenol]	≤ 100	–	–	–
CS(=O)(=O)Nc1ccc(CCNC(=O)c2cc3cc(O)ccc3cc2O)cc1 [Example 16, 3,7-dihydroxy-N-(2-{4-[(methylsulphonyl)amino]phenyl}ethyl)-2-naphthamide]	≤ 100	–	176 to 178	–
O=C(NCCc1ccc([N+](=O)[O-])cc1)c1cc2cc(O)ccc2cc1O [Example 11, 3,7-dihydroxy-N-[2-(4-nitrophenyl)ethyl]-2-naphthamide]	≤ 100	–	> 250	–
NS(=O)(=O)c1ccc(CCNC(=O)c2cc3cc(O)ccc3cc2O)cc1 [Example 14, N-{2-[4-(aminosulphonyl)phenyl]ethyl}-3,7-dihydroxy-2-naphthamide]	≤ 100	–	–	≤ 100
